# Assay results from patent publication US10246498B2, “Genetically encoded histone reporter allele constructs” (THE JOHNS HOPKINS UNIVERSITY, priority 2014, dated 2019).
# Entries after “also recorded” stand apart in the source; their conditions may differ.
# Tests used:
# [1] = tested on: H3K4 trimethylation activity in MEFs; assay: H3K4me3 indicator in murine embryonic fibroblasts from Kmt2d+/βGeo and Kmt2d+/+ mice; format: cell-based, mouse
# Source text: An H3K4 trimethylation reporter was also created (FIG. 5B). This reporter is based on the H3 tail on one end and the TBP associated factor III (TAFIII) […] on the other end; the TAFIII […] only identifies and binds to trimethylated K4 on H3. When the H3K4 site gets trimethylated, the TAFIII […] can bind to the modified H3 tail and bring the two parts of the separated GFP in close proximity. The activity of the epigenetic modification system can be quantified through fluorescence.
# Epigenetic reporter alleles were synthesized (OriGene, Rockville, Md.) using published sequences for component elements (Baird et al. (1999) Proc. Natl. Acad. Sci. 96:11241-6; Souslova et al. (2007) BMC Biotechnol. 7:37). Single nucleotide mutations were created using the QuickChange Lightening kit (Agilent Technologies Inc, Santa Clara, Calif.). For H4ac indicator, K5R, K8R, K12R, K16R and K20R (MUT indicator) were introduced. For H3K4me3 indicator, K4Q and D890A/W891A and M882A (three separate constructs) were introduced. For transient transfections, mouse embryonic fibroblasts (see below) were transfected with Fugene HD (Promega, Madison, Wis.), 48 hours prior to FACS. […] For drug stimulation, drug was added to the media 24 hours prior to FACS. For stable transfections in T293 (American Type Culture Collection) cells, 10 μg/ml of Blastocidin (Life Technologies, Carlsbad, Calif.) was added to the media for several weeks. For stable transfection in MEFs, the reporter was transferred to a ViraPower Lentiviral Expression System (Life Technologies, Carlsbad, Calif.). After selection with Blastocidin, the drug of interest was added 24 hours prior to FACS. SAHA, AR-42 and MS275 were purchased from Selleck (Selleck Chemicals, Houston, Tex.). […] FACS data were analyzed using FlowJo (Tree Star Inc, Ashland, Oreg.). A plasmid expressing HDAC3 was acquired from Addgene (Cambridge, Mass., plasmid 13819) and transfected into a stable cell line carrying the H4 acetyl reporter allele.
# genome-wide H3K4me3 = assay: ChIP-seq of H3K4me3 in spleen cells of treated mice; format: in vivo, mouse; details: 10 mg/kg/day, spleen cells of Kmt2d+/βGeo mice
# Description: Spleens were dissected from eight mice, four from each kmt2d genotype (+/βGeo or +/+) where half of each genotype was treated with AR-42 and half with vehicle only. Spleens were minced and passed through a 40 μm cell strainer to obtain single cell suspensions. 10 million cells were used for each ChIP-seq experiment following the native chromatin immunoprecipitation protocol, as previously described (Gilfillan et al. (2012) BMC Genomics 13:645), using a ChIP-grade antibody against H3K4me3 (9727, Cell Signaling Technology, Beverly, Mass.).
# Sequencing was performed using a MiSeq system (Illumina, San Diego, Calif.). 4.8-9.6 million paired-end 26 bp reads were obtained per sample (Table 1; nReads=number of reads, alignRate=fraction aligned to genome; FRIP=fraction of reads in peaks). Reads were aligned to the m. musculus genome, version mm10, using Bowtie 2 (Langmead and Salzberg (2012) Nat. Methods. 9: 357-9). Each sample was examined with regard to alignment rate as well as FRIP (fraction of reads in peaks), a measure of the ChIP efficiency (Table 1). […] For analysis, reads were merged into one meta-sample and peak calling was performed using MACS version 1.4.2 (Zhang et al. (2008) Genome Biol. 9: R137). […] This created a peak by sample matrix of read counts. […] Fold change and overall abundance was calculated as per edgeR. […]
smiles,measurement,setting,value
CC(C)[C@H](C(=O)Nc1ccc(C(=O)NO)cc1)c1ccccc1 [AR-42],dose at which Kmt2d+/βGeo MEFs achieve untreated wild-type levels of activity,[1]; Kmt2d+/βGeo MEFs,5 µM
same,H3K4 trimethylation activity,[1]; Kmt2d+/βGeo cells (MEFs),enhanced
same,H3K4me3 indicator activity in MEFs,[1]; both genotypes (Kmt2d+/+ and Kmt2d+/βGeo),dose-dependent response
same,genome-wide deficiency of H3K4me3 (ChIP-seq),genome-wide H3K4me3,genome-wide increase in H3K4me3; also recorded: overcorrection; also recorded: improved; also recorded: recovered; also recorded: normalized (but somewhat over corrected)
